Laboratory results reported in ChEMBL document CHEMBL4396913, “Synthesis and biological evaluation of hybrid quinolone-based quaternary ammonium antibacterial agents” (Eur J Med Chem, 2019).
Activity calls are given as the source filed them. The calls are words filed in the database; no cut-off is given here.

How the values were obtained:
[1] = Lipophilicity, log k of the compound at 100 ug/ml by micellar electrokinetic chromatography; format: physicochemical
Staphylococcus aureus [2] = assay: Antibacterial activity against Staphylococcus aureus ATCC 6538 cultured in MH medium assessed as reduction in bacterial growth incubated for 48 hrs by microbroth dilution method; format: functional; conditions: ATCC 6538, 48 h
Staphylococcus aureus [3] = assay: Bactericidal activity against Staphylococcus aureus ATCC 6538 cultured in MH medium assessed as reduction in bacterial survival incubated for 48 hrs by microbroth dilution method; format: functional; conditions: ATCC 6538, 48 h
Staphylococcus aureus [4] = assay: Antibacterial activity against methicillin resistant Staphylococcus aureus N315 cultured in MH medium assessed as reduction in bacterial growth incubated for 48 hrs by microbroth dilution method; format: functional; conditions: N315, 48 h
Staphylococcus aureus [5] = assay: Bactericidal activity against methicillin resistant Staphylococcus aureus N315 cultured in MH medium assessed as reduction in bacterial survival incubated for 48 hrs by microbroth dilution method; format: functional; conditions: N315, 48 h
[6] = system: Staphylococcus epidermidis; assay: Antibacterial activity against Staphylococcus epidermidis ATCC 14990 cultured in MH medium assessed as reduction in bacterial growth incubated for 48 hrs by microbroth dilution method; format: functional; conditions: ATCC 14990, 48 h
[7] = system: Staphylococcus epidermidis; assay: Bactericidal activity against Staphylococcus epidermidis ATCC 14990 cultured in MH medium assessed as reduction in bacterial survival incubated for 48 hrs by microbroth dilution method; format: functional; conditions: ATCC 14990, 48 h
Enterococcus hirae = assay: Antibacterial activity against Enterococcus hirae ATCC 1052 cultured in BHI medium assessed as reduction in bacterial growth incubated for 48 hrs by microbroth dilution method; format: functional; conditions: ATCC 1052, 48 h
Bacillus spizizenii [8] = assay: Antibacterial activity against Bacillus subtilis ATCC 6633 cultured in MH medium assessed as reduction in bacterial growth incubated for 48 hrs by microbroth dilution method; format: functional; conditions: ATCC 6633, 48 h
Bacillus spizizenii [9] = assay: Bactericidal activity against Bacillus subtilis ATCC 6633 cultured in MH medium assessed as reduction in bacterial survival incubated for 48 hrs by microbroth dilution method; format: functional; conditions: ATCC 6633, 48 h
Escherichia coli [10] = assay: Antibacterial activity against Escherichia coli ATCC 8739 cultured in MH medium assessed as reduction in bacterial growth incubated for 48 hrs by microbroth dilution method; format: functional; conditions: ATCC 8739, 48 h
Pseudomonas aeruginosa [11] = assay: Antibacterial activity against Pseudomonas aeruginosa ATCC 9027 cultured in MH medium assessed as reduction in bacterial growth incubated for 48 hrs by microbroth dilution method; format: functional; conditions: ATCC 9027, 48 h
Pseudomonas aeruginosa [12] = assay: Bactericidal activity against Pseudomonas aeruginosa ATCC 9027 cultured in MH medium assessed as reduction in bacterial survival incubated for 48 hrs by microbroth dilution method; format: functional; conditions: ATCC 9027, 48 h
Proteus vulgaris [13] = assay: Antibacterial activity against Proteus vulgaris NCTC 4635 cultured in MH medium assessed as reduction in bacterial growth incubated for 48 hrs by microbroth dilution method; format: functional; conditions: NCTC 4635, 48 h
Proteus vulgaris [14] = assay: Bactericidal activity against Proteus vulgaris NCTC 4635 cultured in MH medium assessed as reduction in bacterial survival incubated for 48 hrs by microbroth dilution method; format: functional; conditions: NCTC 4635, 48 h
Staphylococcus aureus [15] = assay: Antibacterial activity against methicillin resistant Staphylococcus aureus 6347 cultured in MH medium assessed as reduction in bacterial growth incubated for 48 hrs by microbroth dilution method; format: functional; conditions: Staphylococcus aureus, 6347, 48 h
[16] = system: Staphylococcus epidermidis; assay: Antibacterial activity against methicillin resistant Staphylococcus epidermidis ATCC 13199 cultured in MH medium assessed as reduction in bacterial growth incubated for 48 hrs by microbroth dilution method; format: functional; conditions: ATCC 13199, 48 h
[17] = system: Staphylococcus epidermidis; assay: Bactericidal activity against methicillin resistant Staphylococcus epidermidis ATCC 13199 cultured in MH medium assessed as reduction in bacterial survival incubated for 48 hrs by microbroth dilution method; format: functional; conditions: ATCC 13199, 48 h
Streptococcus pneumoniae = assay: Bactericidal activity against Streptococcus pneumoniae cultured in MH medium assessed as reduction in bacterial survival incubated for 48 hrs by microbroth dilution method; format: functional
Serratia marcescens [18] = assay: Antibacterial activity against Serratia marcescens ATCC 12795 cultured in MH medium assessed as reduction in bacterial growth incubated for 48 hrs by microbroth dilution method; format: functional; conditions: ATCC 12795, 48 h
Serratia marcescens [19] = assay: Bactericidal activity against Serratia marcescens ATCC 12795 cultured in MH medium assessed as reduction in bacterial survival incubated for 48 hrs by microbroth dilution method; format: functional; conditions: ATCC 12795, 48 h
Staphylococcus aureus [20] = assay: Antibiofilm activity against Staphylococcus aureus ATCC 25923 assessed as reduction in biofilm viability at 2.5 to 20 uM incubated for 24 hrs compound added prior to bacterial biofilm formation by resazurin staining based assay relative to control; format: functional
[21] = target: T1, DNA gyrase (Escherichia coli) (UniProt P0AES6+P0AES4); assay: Inhibition of Escherichia coli DNA gyrase super-coiling activity using relaxed pNO1 DNA as substrate assessed as enzyme residual activity at 10 uM incubated for 30 mins by fluorescence assay relative to control; format: protein-complex assay
[22] = target: T1, DNA gyrase (Escherichia coli); assay: Inhibition of Escherichia coli DNA gyrase super-coiling activity using relaxed pNO1 DNA as substrate assessed as enzyme residual activity at 1 uM incubated for 30 mins by fluorescence assay relative to control; format: protein-complex assay
Pseudomonas aeruginosa [23] = assay: Antibiofilm activity against Pseudomonas aeruginosa ATCC 9027 assessed as biofilm formation at antibacterial MIC incubated for 24 hrs compound added prior to bacterial biofilm formation by total biomass crystal violet staining-based method relative to control; format: functional
Pseudomonas aeruginosa [24] = assay: Antibiofilm activity against Pseudomonas aeruginosa ATCC 9027 assessed as biofilm formation at 0.5 times antibacterial MIC incubated for 24 hrs compound added prior to bacterial biofilm formation by total biomass crystal violet staining-based method relative to control; format: functional
Staphylococcus aureus [25] = assay: Antibiofilm activity against Staphylococcus aureus ATCC 6538 assessed as biofilm formation at 0.5 times antibacterial MIC incubated for 24 hrs compound added prior to bacterial biofilm formation by total biomass crystal violet staining-based method relative to control; format: functional
Staphylococcus aureus [26] = assay: Antibiofilm activity against Staphylococcus aureus ATCC 25923 assessed as reduction in biofilm biomass at >2.5 uM incubated for 24 hrs compound added prior to bacterial biofilm formation by crystal violet staining based assay; format: functional, organism-based
Escherichia coli [27] = assay: Antibacterial activity against […] Escherichia coli ATCC 8739 assessed as reduction in bacterial growth incubated for 48 hrs in presence of 50 ug/ml […], PAbetaN by microbroth dilution method; format: functional; conditions: ATCC 8739, 48 h
Escherichia coli [28] = assay: Bactericidal activity against […] Escherichia coli ATCC 8739 assessed as reduction in bacterial survival incubated for 48 hrs in presence of 50 ug/ml […], PAbetaN by microbroth dilution method; format: functional; conditions: ATCC 8739, 48 h
HEK293 [29] = assay: Cytotoxicity against human HEK293 cells assessed as cell viability upto 20 uM incubated for 72 hrs by MTT assay; format: cell-based; conditions: hek293, 72 h
HEK293 [30] = assay: Cytotoxicity against human HEK293 cells assessed as changes in cell morphology upto 20 uM incubated for 72 hrs by MTT assay; format: cell-based; conditions: hek293, 72 h
Pseudomonas aeruginosa [31] = assay: Biofilm degradation activity against Pseudomonas aeruginosa ATCC 9027 assessed as biofilm formation at 4 times antibacterial MIC incubated for 24 hrs compound added post-biofilm formation by total biomass crystal violet staining-based method; format: functional
Staphylococcus aureus [32] = assay: Biofilm degradation activity against Staphylococcus aureus ATCC 6538 assessed as biofilm formation at antibacterial MIC incubated for 24 hrs compound added post-biofilm formation by total biomass crystal violet staining-based method; format: functional
Staphylococcus aureus [33] = assay: Biofilm degradation activity against Staphylococcus aureus ATCC 6538 assessed as biofilm formation at 4 times antibacterial MIC incubated for 24 hrs compound added post-biofilm formation by total biomass crystal violet staining-based method; format: functional

SMILES	log K [1]	MIC (Staphylococcus aureus [2]) [µg/mL]	MBC (Staphylococcus aureus [3]) [µg/mL]	MIC (Staphylococcus aureus [4]) [µg/mL]	MBC (Staphylococcus aureus [5]) [µg/mL]	MIC [6] [µg/mL]	MBC [7] [µg/mL]	MIC (Enterococcus hirae) [µg/mL]	MIC (Bacillus spizizenii [8]) [µg/mL]	MBC (Bacillus spizizenii [9]) [µg/mL]	MIC (Escherichia coli [10]) [µg/mL]	MIC (Pseudomonas aeruginosa [11]) [µg/mL]	MBC (Pseudomonas aeruginosa [12]) [µg/mL]	MIC (Proteus vulgaris [13]) [µg/mL]	MBC (Proteus vulgaris [14]) [µg/mL]	MIC (Staphylococcus aureus [15]) [µg/mL]	MIC [16] [µg/mL]	MBC [17] [µg/mL]	MBC (Streptococcus pneumoniae) [µg/mL]	MIC (Serratia marcescens [18]) [µg/mL]	also measured
O=C(O)C1=Cc2ccccc2N2C[N+]3(CCN(c4cc5c(cc4F)c(=O)c(C(=O)O)cn5C4CC4)CC3)N=C12.[Cl-]	-0.1527	4	4	4	4	2	2	> 512	1	2	2	2	2	0.063	0.063	2	1	1	512	1	MBC (Serratia marcescens [19]): 2 µg/mL; inhibition (INH) (Staphylococcus aureus [20]): 100%; Activity [21]: 34%; Activity [22]: 97%; Activity (Pseudomonas aeruginosa [23]): 13%; Activity (Pseudomonas aeruginosa [24]): 26%; Activity (Staphylococcus aureus [25]): 6%; inhibition (Staphylococcus aureus [26]): Active; MIC (Escherichia coli [27]): 0.25 µg/mL; MBC (Escherichia coli [28]): 0.5 µg/mL; Activity (HEK293 [29]): Non-Toxic; Activity (HEK293 [30]): Non-Toxic; Activity (Pseudomonas aeruginosa [31]): 30%; Activity (Staphylococcus aureus [32]): 21%; Activity (Staphylococcus aureus [33]): 10%
CCn1cc(C(=O)O)c(=O)c2cc(F)c(N3CC[N+]4(CN5C(=N4)C(C(=O)O)=Cc4ccccc45)C(C)C3)c(F)c21.[Cl-] (stereo not given)	-0.265	2	2	2	2	4	4	512	0.5	0.5	0.25	1	1	0.125	0.125	4	1	2	512	2	MBC (Serratia marcescens [19]): 2 µg/mL; inhibition (INH) (Staphylococcus aureus [20]): 100%; Activity [21]: 11%; Activity [22]: 97%; Activity (Pseudomonas aeruginosa [23]): 53%; Activity (Pseudomonas aeruginosa [24]): 73%; Activity (Staphylococcus aureus [25]): 47%; inhibition (Staphylococcus aureus [26]): Active; MIC (Escherichia coli [27]): 0.125 µg/mL; MBC (Escherichia coli [28]): 0.25 µg/mL; Activity (HEK293 [29]): Non-Toxic; Activity (HEK293 [30]): Non-Toxic; Activity (Pseudomonas aeruginosa [31]): 47%; Activity (Staphylococcus aureus [32]): 60%; Activity (Staphylococcus aureus [33]): 6%
CCn1cc(C(=O)O)c(=O)c2cc(F)c(N3CC[N+]4(CC3)CN3C(=N4)C(C(=O)O)=Cc4ccccc43)nc21.[Cl-]	-0.2387	8	8	8	8	4	4	512	2	2	1	1	1	0.25	0.5	4	2	2	512	8	MBC (Serratia marcescens [19]): 16 µg/mL; inhibition (INH) (Staphylococcus aureus [20]): 100%; Activity [21]: 73%; Activity [22]: 100%; Activity (Pseudomonas aeruginosa [23]): 16%; Activity (Pseudomonas aeruginosa [24]): 52%; Activity (Staphylococcus aureus [25]): 35%; inhibition (Staphylococcus aureus [26]): Active; MIC (Escherichia coli [27]): 0.5 µg/mL; MBC (Escherichia coli [28]): 1 µg/mL; Activity (HEK293 [29]): Non-Toxic; Activity (HEK293 [30]): Non-Toxic; Activity (Pseudomonas aeruginosa [31]): 42%; Activity (Staphylococcus aureus [32]): 45%; Activity (Staphylococcus aureus [33]): 16%
